Target: T1, p53 Y220C (Homo sapiens, UniProt P04637, Y220C)
T1 construct: The recombinant protein was a truncation mutant containing only amino acids 94-312 of p53; made in house; host or cells: E. coli
Test: In vitro DNA binding activity assay (HTRF / TR-FRET): stabilization of p53 Y220C and increase of its DNA binding activity
Format: biochemical
Conditions: recombinant His-tagged p53 Y220C DNA binding domain (aa 94-312), biotin-labeled consensus DNA, incubated at 27° C. or 29° C. for 60 min
Summary of the method: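 E. coli His-p53 Y220C + biotin consensus DNA; anti-His-APC/SA-Eu TR-FRET. SC150 vs no-compound.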

T1 sequence (P04637 94-312, change not shown): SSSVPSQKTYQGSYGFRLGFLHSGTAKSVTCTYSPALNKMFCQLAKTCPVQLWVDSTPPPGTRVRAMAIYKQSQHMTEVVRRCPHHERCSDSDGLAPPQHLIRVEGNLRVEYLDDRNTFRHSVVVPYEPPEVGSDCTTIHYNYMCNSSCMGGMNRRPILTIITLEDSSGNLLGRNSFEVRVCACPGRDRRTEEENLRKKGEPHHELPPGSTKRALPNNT

SC150 (concentration of the compound required to increase the DNA binding activity by 50%), + (+ = 0 μM ≤ SC150 < 0.05 μM):
CCOc1cc(S(C)(=O)=O)ccc1NCC#Cc1cc2c(N[C@H]3CCN(C)C[C@H]3F)cccc2n1CC(F)(F)F [Compound 844A]
COc1cc(S(N)(=O)=O)ccc1NCC#Cc1cc2c(N[C@@H]3CCNC[C@@H]3F)cccc2n1CC(F)(F)F [Compound 845A]
COc1cc(S(N)(=O)=O)ccc1NCC#Cc1cc2c(N[C@H]3CCNC[C@H]3F)cccc2n1CC(F)(F)F [Compound 846A]
COc1cc(S(C)(=O)=O)ccc1NCC#Cc1cc2c(N[C@H]3CCNC[C@H]3F)cccc2n1CC(F)(F)F [Compound 848A]
COc1cc(C(N)=O)ccc1NCC#Cc1cc2c(N[C@@H]3CCNC[C@@H]3F)cccc2n1CC(F)(F)F [Compound 849A, 4-{[3-(4-{[(3S,4R)-3-fluoropiperidin-4-yl]amino}-1-(2,2,2-trifluoroethyl)-1H-indol-2-yl)prop-2-yn-1-yl]amino}-3-methoxybenzamide]
CNC(=O)c1ccc(NCC#Cc2cc3c(N[C@H]4CCNC[C@H]4F)cccc3n2CC(F)(F)F)c(OC)c1 [Compound 851A]
COc1cc(C(=O)O)ccc1NCC#Cc1cc2c(N[C@H]3CCNC[C@H]3F)cccc2n1CC(F)(F)F [Compound 852A]
COc1cc(S(C)(=O)=O)ccc1NCC#Cc1cc2c(N[C@@H]3CCN(CCO)C[C@@H]3F)cccc2n1CC(F)(F)F [Compound 853A, 2-[(3S,4R)-3-fluoro-4-[(2-{3-[(4-methanesulfonyl-2-methoxyphenyl)amino]prop-1-yn-1-yl}-1-(2,2,2-trifluoroethyl)-1H-indol-4-yl)amino]piperidin-1-yl]ethan-1-ol]
COc1cc(S(C)(=O)=O)ccc1NCC#Cc1cc2c(N[C@H]3CCN(CCO)C[C@H]3F)cccc2n1CC(F)(F)F [Compound 854A, 2-[(3R,4S)-3-fluoro-4-[(2-{3-[(4-methanesulfonyl-2-methoxyphenyl)amino]prop-1-yn-1-yl}-1-(2,2,2-trifluoroethyl)-1H-indol-4-yl)amino]piperidin-1-yl]ethan-1-ol]
COc1cc(S(C)(=O)=O)ccc1NCC#Cc1cc2c(N[C@@H]3CCN(C(=O)CN(C)C)C[C@@H]3F)cccc2n1CC(F)(F)F [Compound 855A, 2-(dimethylamino)-1-[(3S,4R)-3-fluoro-4-[(2-{3-[(4-methanesulfonyl-2-methoxyphenyl)amino]prop-1-yn-1-yl}-1-(2,2,2-trifluoroethyl)-1H-indol-4-yl)amino]piperidin-1-yl]ethan-1-one]
COc1cc(S(C)(=O)=O)ccc1NCC#Cc1cc2c(N[C@H]3CCN(C(=O)CN(C)C)C[C@H]3F)cccc2n1CC(F)(F)F [Compound 856A, 2-(dimethylamino)-1-[(3R,4S)-3-fluoro-4-[(2-{3-[(4-methanesulfonyl-2-methoxyphenyl)amino]prop-1-yn-1-yl}-1-(2,2,2-trifluoroethyl)-1H-indol-4-yl)amino]piperidin-1-yl]ethan-1-one]
CNC(=O)c1ccc(NCC#Cc2cc3c(N[C@@H]4CCNC[C@@H]4F)cccc3n2CC(F)(F)F)c(OC)c1 [Compound 857A]
COc1cc(C(=O)O)ccc1NCC#Cc1cc2c(N[C@@H]3CCNC[C@@H]3F)cccc2n1CC(F)(F)F [Compound 858A]
COCCN1CC[C@@H](Nc2cccc3c2cc(C#CCNc2ccc(S(C)(=O)=O)cc2OC)n3CC(F)(F)F)[C@@H](F)C1 [Compound 859A, N-[(3S,4R)-3-fluoro-1-(2-methoxyethyl)piperidin-4-yl]-2-{3-[(4-methanesulfonyl-2-methoxyphenyl)amino]prop-1-yn-1-yl}-1-(2,2,2-trifluoroethyl)-1H-indol-4-amine]
COCCN1CC[C@H](Nc2cccc3c2cc(C#CCNc2ccc(S(C)(=O)=O)cc2OC)n3CC(F)(F)F)[C@H](F)C1 [Compound 860A, N-[(3R,4S)-3-fluoro-1-(2-methoxyethyl)piperidin-4-yl]-2-{3-[(4-methanesulfonyl-2-methoxyphenyl)amino]prop-1-yn-1-yl}-1-(2,2,2-trifluoroethyl)-1H-indol-4-amine]
COc1cc(S(C)(=O)=O)ccc1NCC#Cc1cc2c(N[C@@H]3CCN(C(C)=O)C[C@@H]3F)cccc2n1CC(F)(F)F [Compound 862A, 1-[(3S,4R)-3-fluoro-4-[(2-{3-[(4-methanesulfonyl-2-methoxyphenyl)amino]prop-1-yn-1-yl}-1-(2,2,2-trifluoroethyl)-1H-indol-4-yl)amino]piperidin-1-yl]ethan-1-one]
COc1cc(S(C)(=O)=O)ccc1NCC#Cc1cc2c(N[C@H]3CCN(C(C)=O)C[C@H]3F)cccc2n1CC(F)(F)F [Compound 863A, 1-[(3R,4S)-3-fluoro-4-[(2-{3-[(4-methanesulfonyl-2-methoxyphenyl)amino]prop-1-yn-1-yl}-1-(2,2,2-trifluoroethyl)-1H-indol-4-yl)amino]piperidin-1-yl]ethan-1-one]
CCC(=O)N1CC[C@@H](Nc2cccc3c2cc(C#CCNc2ccc(S(C)(=O)=O)cc2OC)n3CC(F)(F)F)[C@@H](F)C1 [Compound 864A, 1-[(3S,4R)-3-fluoro-4-[(2-{3-[(4-methanesulfonyl-2-methoxyphenyl)amino]prop-1-yn-1-yl}-1-(2,2,2-trifluoroethyl)-1H-indol-4-yl)amino]piperidin-1-yl]propan-1-one]
CCC(=O)N1CC[C@H](Nc2cccc3c2cc(C#CCNc2ccc(S(C)(=O)=O)cc2OC)n3CC(F)(F)F)[C@H](F)C1 [Compound 865A, 1-[(3R,4S)-3-fluoro-4-[(2-{3-[(4-methanesulfonyl-2-methoxyphenyl)amino]prop-1-yn-1-yl}-1-(2,2,2-trifluoroethyl)-1H-indol-4-yl)amino]piperidin-1-yl]propan-1-one]
COCC(=O)N1CC[C@@H](Nc2cccc3c2cc(C#CCNc2ccc(S(C)(=O)=O)cc2OC)n3CC(F)(F)F)[C@@H](F)C1 [Compound 866A, 1-[(3S,4R)-3-fluoro-4-[(2-{3-[(4-methanesulfonyl-2-methoxyphenyl)amino]prop-1-yn-1-yl}-1-(2,2,2-trifluoroethyl)-1H-indol-4-yl)amino]piperidin-1-yl]-2-methoxyethan-1-one]
COCC(=O)N1CC[C@H](Nc2cccc3c2cc(C#CCNc2ccc(S(C)(=O)=O)cc2OC)n3CC(F)(F)F)[C@H](F)C1 [Compound 867A, 1-[(3R,4S)-3-fluoro-4-[(2-{3-[(4-methanesulfonyl-2-methoxyphenyl)amino]prop-1-yn-1-yl}-1-(2,2,2-trifluoroethyl)-1H-indol-4-yl)amino]piperidin-1-yl]-2-methoxyethan-1-one]
COc1cc(C(N)=O)ccc1NCC#Cc1cc2c(N[C@H]3CCNC[C@H]3F)cccc2n1CC(F)(F)F [Compound 868A, 4-{[3-(4-{[(3R,4S)-3-fluoropiperidin-4-yl]amino}-1-(2,2,2-trifluoroethyl)-1H-indol-2-yl)prop-2-yn-1-yl]amino}-3-methoxybenzamide]
COC[C@H](O)CN1CC[C@@H](Nc2cccc3c2cc(C#CCNc2ccc(S(N)(=O)=O)cc2OC)n3CC(F)(F)F)[C@@H](F)C1 [Compound 869A, 4-{[3-(4-{[(3S,4R)-3-fluoro-1-[(2R)-2-hydroxy-3-methoxypropyl]piperidin-4-yl]amino}-1-(2,2,2-trifluoroethyl)-1H-indol-2-yl)prop-2-yn-1-yl]amino}-3-methoxybenzene-1-sulfonamide]
COc1cc(S(C)(=O)=O)ccc1NCC#Cc1cc2c(N[C@@H]3CCC4(C[C@@H]3F)OCCO4)cccc2n1CC(F)(F)F [Compound 870A, N-[(7S,8R)-7-fluoro-1,4-dioxaspiro[4.5]decan-8-yl]-2-{3-[(4-methanesulfonyl-2-methoxyphenyl)amino]prop-1-yn-1-yl}-1-(2,2,2-trifluoroethyl)-1H-indol-4-amine]
COC[C@H](O)CN1CC[C@@H](Nc2cccc3c2cc(C#CCNc2ccc(C(=O)OC)cc2OC)n3CC(F)(F)F)[C@@H](F)C1 [Compound 878A]

Reference: patent publication US12428406B2 (PMV Pharmaceuticals, Inc., priority 2019, dated 2025)
